Data: US6281250A, “Retinyl ethers, derivatives and analogues and inhibition of breast carcinogenesis” (Southern Research Institute, priority 1999, dated 2001)
Entries after “also recorded” stand apart in the source; their conditions may differ. One block for each molecule: values may come before it.

Columns and labels:
[1] = 24 hours or similar, protected from light and air; Shealy et al, 1997; cited from earlier work
[2] = target: T1, cellular retinol-binding protein (CRBP) (Rattus norvegicus, UniProt P02696); test: Binding to cellular retinol-binding protein (CRBP): inhibition of [3H]retinol binding, sucrose density-gradient sedimentation; details: for Percent Inhibition of [3H] Retinol Binding (CRBP Assay): 150-fold molar excess of unlabelled test retinoid, rat testes cytosol
T1 construct: portions of rat testes cytosol (1 mg protein) were incubated; from tissue; host or cells: rat testes cytosol
T1 sequence (P02696 1-135): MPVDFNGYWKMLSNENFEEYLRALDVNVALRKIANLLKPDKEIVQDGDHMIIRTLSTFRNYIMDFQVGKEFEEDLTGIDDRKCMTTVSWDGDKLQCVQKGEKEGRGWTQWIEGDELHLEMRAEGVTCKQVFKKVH
Description: Binding affinities of the retinyl ethers for CRBP were determined by sucrose, density-gradient, sedimentation analysis as described before (Sani et al., 1980). Briefly, portions of rat testes cytosol (1 mg protein) were incubated with [^3 H]retinol (50 pmol) in the presence or absence of a 150-fold molar excess of unlabeled retinol or the test retinoids. The preparations after dialysis were analyzed by 5-20% sucrose density gradient sedimentation. For measuring the competitive binding of the unlabeled retinoids, inhibition of [^3 H]retinol binding to CRBP by unlabeled retinol is regarded as 100%. The mean and standard deviation calculated from the relative inhibitions obtained from multiple determinations were used as the relative binding affinities of the various retinyl ethers.
The group of retinyl benzyl ethers has now been evaluated for binding to CRBP. Binding to CRBP, as defined for Table I, at approximately 60% or higher was rated as strong; at 40-60%, as moderate; at 20-40%, as low.
^a Per cent inhibition of binding of tritiated retinol to CRBP by a
150-fold molar excess of the unlabelled test retinoid (Sani et al., 1980,

[3] = in vivo; details: for NOAEL: mouse, in vivo, po; for Toxic Dose: oral gavage in corn oil, 28-29 days; for clinical toxicity (alopecia, scaly skin, limping): oral gavage, up to highest dose (RTMBE and RMoBE-4: Expt. 2)
Description: Toxicological evaluations involving measurement of body weights and observations of clinical signs characteristic of retinoid toxicity were accomplished as previously described (Lin et al., 1996).
RTMBE and two of its analogues, together with RME and RPE, were selected for estimation of their toxicities to mice when administered during 28-29 days by gavage in corn oil (Table 8). Mice were evaluated for changes in body weight and for signs of clinical retinoid toxicity (hypervitaminosis A) including alopecia, scaly skin, and limping. In the first experiment, these retinyl ethers were given at equimicromolar doses at three dose levels. The retinyl benzyl ethers (RTMBE, 3c, and 3e) were then tested at higher doses in a second experiment.

[4] = test system: MNU-induced mammary cancer; test: Short-term (90-day) assay against MNU-induced mammary cancer in rats (Expts. 2 and 3); assay type: in vivo, rat (female Sprague-Dawley); details: for effectiveness in reducing the number of tumors per rat: in feed
Description: (§1) Retinoid diet mixtures were stored at 4° C. […] The animals were palpated for mammary tumors 2×/week. […] Also, five rats/group had complete necropsies performed.
(§2) The 2,5-dimethoxybenzyl (3b) and 4-methoxybenzyl (3e) ethers were tested in the same way in a 90-day study. […] The 2,5-dimethybenzyl (3c) and the 2,3-dimethoxybenzyl (3h) ethers, together with RTMBE for comparison, were likewise assayed according to the same methodology. Prior to the beginning of this study, specimens of the retinoid-diet mixtures were placed under the conditions that were employed during the storage and feeding of RTMBE, 3c, and 3h. The specimens were extracted with butanol, and the extracts were analyzed by HPLC. […] Testing of 3c and 3h was discontinued, but the RTMBE study was continued until the duration of the study was 180 days (Table 6). The results were similar to those of Experiment 1 (Table 3). The averages of the number of tumors per rat were reduced by 32-35%; in addition, the averages of the tumor weights per rat was 56-70% lower than the average tumor burden of the control group.
and was continued until the studies of 3b, 3c, 3e, and 3h were terminated
90 days after administration of MNU. The RTMBE experiment was continued
until 180 days after MNU administration (Table VI).
kilogram of Teklad diet.

[5] = Toxicity observations in rats receiving retinoids in feed; assay type: in vivo, rat (Sprague-Dawley); details: administered in feed
Description: as §1

[6] = Analysis of feed samples for stability of retinyl ethers; assay type: physicochemical; details: for % recovery of retinyl ether: Vehicle + Retinoid (only); for stability in diet mixtures: conditions of storage and feeding in animal rooms
Description: as §2
^a The values in each column are % recoveries of the retinyl ether from
mixtures of the ether with feed samples and are based on the actual
amounts of the ether that were added.
^b The samples that were analyzed were mixtures of vehicle, retinoid,
and feed (prepared as described by Shealy et al., 1997).
^c Food cups were placed in animal cages within the room that housed
the rats; therefore, temperature (22° C.) and lighting were
identical to those in use during the in vivo tests.

[7] = Mammary tissue-to-plasma concentration after intravenous dosing; assay type: in vivo, rat (female Sprague-Dawley); details: rat, 5 mg/kg i.v., after 24 hr, read-out: ratio of mammary tissue-to-plasma concentrations
[8] = rat, in feed; Shealy et al., 1997; cited from earlier work
[9] = test system: carcinogen-induced mammary cancer; details: rats; Thompson et al., 1978 / Shealy et al., 1997; cited from earlier work
[10] = test system: MNU-induced mammary tumors; details: with MNU, 1 mmol/kg diet
Description: The methods employed in the preparation of diets, analyses of retinoid-dietspecimens, and dietary treatment with retinoids of MNU-induced mammary carcinogenesis in Sprague-Dawley rats were described previously (Grubbs et al., 1995; Shealy et al., 1997). Briefly, diets were prepared by mixing each retinoid with Wayne meal or Teklad (4%) mash diet. For each kg of diet, the retinoid was dissolved in 12 g ethanol, 19 g trioctanoin, 0.05 mL Tenox 20, and 0.05 mL d,1-alpha tocopherol prior to incorporation into the feed using a Patterson-Kelly blender. Retinoid diet mixtures were stored at 4° C. Portions of each retinoid-diet mixture were analyzed for the added retinoid to ensure homogeneity. Female Sprague-Dawley rats received an i.v. injection of MNU (45 mg/kg body weight) at 50 days of age. Diet supplementation with retinoids was initiated three days after MNU. A group of rats receiving retinyl acetate (1 mmol/kg of diet) served as the positive control. The animals were palpated for mammary tumors 2×/week. At termination of the study, mammary tumors were processed for histological classification. Also, five rats/group had complete necropsies performed. The tissues were examined histologically for pathological lesions as additional toxicological evaluation. Extracts of the liver and mammary gland (5 rats/group) were analyzed by HPLC for retinyl palmitate and/or for the dosed retinoid. Statistical analyses of cancer incidence and latency were determined using logrank analysis, while differences in cancer multiplicity were determined employing the Armitage test.
^b Average number of palpable mammary tumors.
^c Diet supplementation with retinoids was initiated at 52 days of age
and was continued until the study was terminated 180 days after
administration of MNU. Treatment with retinoids is stated in millimoles of
retinoid per kilogram of diet (Wayne meal).
^d Female Sprague-Dawley rats received one i.v. injection of MNU (50
mg/kg of body weight) at 50 days of age.

[11] = test system: MNU-induced mammary cancer; details: 160 days
Description: Briefly, diets were prepared by mixing each retinoid with Wayne meal or Teklad (4%) mash diet. For each kg of diet, the retinoid was dissolved in 12 g ethanol, 19 g trioctanoin, 0.05 mL Tenox 20, and 0.05 mL d,1-alpha tocopherol prior to incorporation into the feed using a Patterson-Kelly blender. Retinoid diet mixtures were stored at 4° C. Portions of each retinoid-diet mixture were analyzed for the added retinoid to ensure homogeneity. Female Sprague-Dawley rats received an i.v. injection of MNU (45 mg/kg body weight) at 50 days of age. Diet supplementation with retinoids was initiated three days after MNU. A group of rats receiving retinyl acetate (1 mmol/kg of diet) served as the positive control. The animals were palpated for mammary tumors 2×/week. At termination of the study, mammary tumors were processed for histological classification. Also, five rats/group had complete necropsies performed. The tissues were examined histologically for pathological lesions as additional toxicological evaluation. Extracts of the liver and mammary gland (5 rats/group) were analyzed by HPLC for retinyl palmitate and/or for the dosed retinoid. Statistical analyses of cancer incidence and latency were determined using logrank analysis, while differences in cancer multiplicity were determined employing the Armitage test.
In this assay, described previously (Grubbs et al., 1995; Shealy el al., 1997), a retinoid dissolved in a solution (vehicle) consisting of ethanol and trioctanoin plus small amounts of Tenox 20 and α-tocopherol was mixed with feed, and the mixture was fed to rats after intravenous injection of MNU.
^a Female Sprague-Dawley rats (10/group) received one i.v. injection of
MNU (45 mg/kg of body weight) at 50 days of age. Diet supplementation with
retinoids was initiated at 52 days of age and was continued until the
study was terminated 160 days after administration of MNU.
^b Treatment with retinoids is stated in millimoles of retinoid per
kilogram of diet (Wayne meal).

[12] = Expt. 3, 0.5 mmol/kg diet, 90 days
[13] = Expt. 3, 1 mmol/kg diet, 90 days
[14] = Expt. 3, 2 mmol/kg diet, 90 days
[15] = After 1 week of 4° C., 10080 min
[16] = After 1 day in food cup (22° C.)
[17] = After 2 days in food cup (22° C.)
[18] = After 3 days in food cup (22° C.)
[19] = Expt. 2, 0.5 mmol/kg diet, 90 days
[20] = Expt. 2, 1 mmol/kg diet, 90 days
[21] = Expt. 2, 2 mmol/kg diet, 90 days

SMILES: CC#CCOCC#CC [Compound 1e, 2-butynyl ether]
stability in refluxing ethanol [1]: intramolecular cyclization

SMILES: CC1=C(/C=C/C(C)=C/C=C/C(C)=C/COCc2cc(C)ccc2C)C(C)(C)CCC1 [Compound 3c, Retinyl 2,5-Dimethylbenzyl Ether]
Percent Inhibition of [3H] Retinol Binding (CRBP Assay) [2]: 65 ± 10% | NOAEL [3]: 431 mg/kg/day | Toxic Dose [3]: > 431 mg/kg day | clinical toxicity (alopecia, scaly skin, limping) [3]: No evidence of clinical toxicity except for scaly skin | effectiveness in reducing the number of tumors per rat ([4]; 90 days): not effective | Tumors, % of Control Gp. [4, 12]: 104% | Tumors, Avg. No. per Rat [4, 12]: 2.0 | Tumors, % of Control Gp. [4, 13]: 171% | Tumors, Avg. No. per Rat [4, 13]: 3.3 | Tumors, % of Control Gp. [4, 14]: 109% | Tumors, Avg. No. per Rat [4, 14]: 2.1 | toxicity in MNU-mammary cancer studies [5]: not toxic in the mammary carcinogenesis studies | % recovery of retinyl ether from feed [6, 15]: 96% | % recovery of retinyl ether from feed [6, 16]: 106% | % recovery of retinyl ether from feed [6, 17]: 96% | % recovery of retinyl ether from feed [6, 18]: 102% | % recovery of retinyl ether from feed ([6]; Immediately After Mixing): 103% | % recovery of retinyl ether [6]: 100% | stability in diet mixtures [6]: essentially unchanged

SMILES: CC1=C(/C=C/C(C)=C/C=C/C(C)=C/COCc2ccccc2)C(C)(C)CCC1 [Compound 3d, Retinyl Benzyl Ether]
binding to CRBP, in words ([2]; 150-fold molar excess): not conducive to CRBP binding; also recorded: does not bind significantly to CRBP | Percent Inhibition of [3H] Retinol Binding (CRBP Assay) [2]: 5 ± 5%

SMILES: COc1ccc(COC/C=C(C)/C=C/C=C(C)/C=C/C2=C(C)CCCC2(C)C)cc1 [Compound 3e, Retinyl 4-Methoxybenzyl Ether]
binding to CRBP, in words ([2]; 150-fold molar excess): not conducive to CRBP binding | Percent Inhibition of [3H] Retinol Binding (CRBP Assay) [2]: 7 ± 7% | NOAEL [3]: 433 mg/kg/day | Toxic Dose [3]: > 433 mg/kg day | clinical toxicity (alopecia, scaly skin, limping) [3]: No evidence of clinical toxicity | Kp at 24 h [7]: 41 ± 14 | effectiveness compared with RTMBE ([4]; 90-day assays, MNU-induced mammary carcinogenesis): less effective than was RTMBE | reductions in the number of tumors per rat ([4]; 90-day study, 1 and 2 mmol/kg of diet): 37-49% | effectiveness in reducing the number of tumors per rat ([4]; 90 days): effective | Tumors, % of Control Gp. [4, 19]: 71% | Tumors, Avg. No. per Rat [4, 19]: 2.5 | Tumors, % of Control Gp. [4, 20]: 63% | Tumors, Avg. No. per Rat [4, 20]: 2.2 | Tumors, % of Control Gp. [4, 21]: 51% | Tumors, Avg. No. per Rat [4, 21]: 1.8 | toxicity in MNU-mammary cancer studies [5]: not toxic in the mammary carcinogenesis studies

SMILES: CC1=C(/C=C/C(C)=C/C=C/C(C)=C/COC(C)c2ccccc2)C(C)(C)CCC1 (stereo not drawn) [Compound 3m, Retinyl α-Methylbenzyl Ether]
Binding to CRBP, rating ([2]; 150-fold molar excess): strong binding | Percent Inhibition of [3H] Retinol Binding (CRBP Assay) [2]: 60 ± 0%

SMILES: CC(C)=CCOC/C=C(C)/C=C/C=C(C)/C=C/C1=C(C)CCCC1(C)C [RMBE, retinyl 3-methyl-2-butenyl ether]
accumulation of retinyl palmitate in the liver [8]: did not cause | suppression of MNU-induced mammary cancer [9]: inhibited the development of MNU-induced mammary cancer; also recorded: only modestly active

SMILES: CC(=O)OC/C=C(C)/C=C/C=C(C)/C=C/C1=C(C)CCCC1(C)C [Retinyl Acetate, retinyl acetate, reference compound]
% of Control Gp., Day 90 [10]: 48% | % of Control Gp., Day 180 [10]: 49% | Avg No. Per Rat (palpable mammary tumors), Day 90 [10]: 1.1 | Avg No. Per Rat (palpable mammary tumors), Day 180 [10]: 3.1 | accumulation of retinyl palmitate in the liver [8]: a toxic effect produced by efficacious amounts | reduction of the number of tumors per rat ([4]; 90 days, at 1 mmol/kg): 66% | Tumors, % of Control Gp. [4, 20]: 34% | Tumors, Avg. No. per Rat [4, 20]: 1.2 | Adenocarcinomas, % of Control Group A ([11]; 1 mmol/kg diet): 70% | Adenocarcinomas, Avg. No. Per Rat ([11]; 1 mmol/kg diet): 4.5 | reduction of average number of tumors per rat ([11]; 1 mmol/kg feed): 30%

The next lines start with results.

Percent Inhibition of [3H] Retinol Binding (CRBP Assay) [2]: 20 ± 5%
SMILES: COc1cccc(COC/C=C(C)/C=C/C=C(C)/C=C/C2=C(C)CCCC2(C)C)c1 [Compound 3f, Retinyl 3-Methoxy Benzyl Ether]
binding to CRBP, in words ([2]; 150-fold molar excess): modest, but significant, binding affinity

binding to CRBP, in words ([2]; 150-fold molar excess): not conducive to CRBP binding | Percent Inhibition of [3H] Retinol Binding (CRBP Assay) [2]: 0%
SMILES: CC1=C(/C=C/C(C)=C/C=C/C(C)=C/COCc2ccc(C)cc2)C(C)(C)CCC1 [Compound 3g, Retinyl 4-Methylbenzyl Ether]

Percent Inhibition of [3H] Retinol Binding (CRBP Assay) [2]: 0% | % recovery of retinyl ether from feed [6, 15]: 99.7% | % recovery of retinyl ether from feed [6, 16]: 95% | % recovery of retinyl ether from feed [6, 17]: 94% | % recovery of retinyl ether from feed [6, 18]: 97.9% | % recovery of retinyl ether from feed ([6]; Immediately After Mixing): 95% | % recovery of retinyl ether [6]: 98.7% | stability in diet mixtures [6]: essentially unchanged
SMILES: COc1cccc(COC/C=C(C)/C=C/C=C(C)/C=C/C2=C(C)CCCC2(C)C)c1OC [Compound 3h, Retinyl 2,3-Dimethoxybenzyl Ether]
effectiveness in reducing the number of tumors per rat ([4]; 90 days): not effective | Tumors, % of Control Gp. [4, 12]: 114% | Tumors, Avg. No. per Rat [4, 12]: 2.2 | Tumors, % of Control Gp. [4, 13]: 104% | Tumors, Avg. No. per Rat [4, 13]: 2.0 | Tumors, % of Control Gp. [4, 14]: 145% | Tumors, Avg. No. per Rat [4, 14]: 2.8

Percent Inhibition of [3H] Retinol Binding (CRBP Assay) [2]: 5 ± 5%
SMILES: COc1ccc(COC/C=C(C)/C=C/C=C(C)/C=C/C2=C(C)CCCC2(C)C)c(OC)c1OC [Compound 3i, Retinyl 2,3,4-Trimethoxybenzyl Ether]

Percent Inhibition of [3H] Retinol Binding (CRBP Assay) [2]: 7 ± 6%
SMILES: CC1=C(/C=C/C(C)=C/C=C/C(C)=C/COCc2c(C)cc(C)cc2C)C(C)(C)CCC1 [Compound 3j, Retinyl 2,4,6-Trimethylbenzyl Ether]

Percent Inhibition of [3H] Retinol Binding (CRBP Assay) [2]: 0%
SMILES: CC1=C(/C=C/C(C)=C/C=C/C(C)=C/COCc2ccc(Cl)cc2Cl)C(C)(C)CCC1 [Compound 3k, Retinyl 2,4-Dichlorobenzyl Ether]

Percent Inhibition of [3H] Retinol Binding (CRBP Assay) [2]: 40 ± 5%
SMILES: CC1=C(/C=C/C(C)=C/C=C/C(C)=C/COCc2c(Cl)cccc2Cl)C(C)(C)CCC1 [Compound 3l, Retinyl 2,6-Dichlorobenzyl Ether]
